Test results published in US20160376240A1, “6 Phenyl or 6 Pyridin 3 YL Indazole Derivatives and Methods of Use” (ABBVIE INC., priority 2014, published 2016).

Assays:
TrkA = molecular target: T1, TrkA (Homo sapiens, UniProt P04629); experiment: TrkA kinase inhibition, HTRF assay; assay type: biochemical; conditions: LCK peptide substrate 125 nM, TrkA 2-10 nM pre-incubated with ATP 200 μM
T1 construct: purchased Invitrogen PV3144
In short: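 TrkA (2-10 nM) preactivated 20 min with 200 μM ATP in HEPES pH 7.4 with Mg2+/Mn2+, then compound for 10 min, then 125 nM biotinylated LCK-peptide for 1 h at ambient temperature. HTRF 665/620 ratio read; IC50 fitted from initial-rate percent inhibition.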

TrkB = molecular target: T2, TrkB (Homo sapiens, UniProt Q16620); experiment: TrkB kinase inhibition, HTRF assay; assay type: biochemical; conditions: LCK peptide substrate, assay ATP concentration targeted 5 μM
T2 construct: purchased Invitrogen PV3616
T2 sequence (Q16620 32-822): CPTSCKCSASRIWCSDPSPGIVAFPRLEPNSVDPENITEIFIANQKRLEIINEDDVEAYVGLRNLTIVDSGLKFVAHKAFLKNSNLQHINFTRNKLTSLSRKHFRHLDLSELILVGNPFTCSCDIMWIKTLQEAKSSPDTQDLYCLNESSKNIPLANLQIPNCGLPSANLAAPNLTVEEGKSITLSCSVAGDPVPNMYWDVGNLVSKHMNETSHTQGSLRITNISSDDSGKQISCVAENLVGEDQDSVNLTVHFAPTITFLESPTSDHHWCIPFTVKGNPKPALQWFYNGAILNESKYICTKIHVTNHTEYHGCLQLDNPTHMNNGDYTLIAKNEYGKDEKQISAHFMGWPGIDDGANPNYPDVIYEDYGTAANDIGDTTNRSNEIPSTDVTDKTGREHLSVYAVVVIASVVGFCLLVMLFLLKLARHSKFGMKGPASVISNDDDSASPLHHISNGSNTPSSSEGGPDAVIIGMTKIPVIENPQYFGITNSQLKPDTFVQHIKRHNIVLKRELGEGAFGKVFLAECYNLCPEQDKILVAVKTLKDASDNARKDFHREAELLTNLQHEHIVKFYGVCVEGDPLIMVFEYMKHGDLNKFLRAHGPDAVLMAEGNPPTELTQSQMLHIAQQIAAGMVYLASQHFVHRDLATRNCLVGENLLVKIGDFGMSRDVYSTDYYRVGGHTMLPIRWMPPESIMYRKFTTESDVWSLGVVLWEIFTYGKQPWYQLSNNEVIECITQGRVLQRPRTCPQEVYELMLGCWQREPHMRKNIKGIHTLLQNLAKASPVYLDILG
Method: (§1) TrkA, TrkB, and TrkC enzymes were obtained from Invitrogen (as catalog numbers PV3144, PV3616, and PV3617, respectively). The ability of a compound to inhibit the enzymatic activity of the TrkA, TrkB, and TrkC enzymes was determined in separate assays. Enzyme activity was measured in an HTRF® (homogeneous time resolved fluorescence) assay, which detects enzymatic phosphorylation of a biotinylated synthetic peptide substrate (an LCK peptide analog, biotin-ahx-GAEEEIYAAFFA, from Genemed Synthesis). Phosphorylation is assessed by HTRF® in the presence of an anti-phosphotyrosine antibody conjugated to Eu^3+ cryptate (Cisbio) as donor fluorophore, and streptavidin conjugated to allophycocyanin (ProZyme) as acceptor fluorophore. The HTRF® signal was detected at two different wavelengths (620 nm and 665 nm) which were used to calculate the fluorescence ratio.
(§2) Each enzyme was titrated to a concentration optimized to ensure accurate measurement of the initial reaction rate. To allow the Trk enzymes to undergo activation and auto-phosphorylation, a 20 minute pre-incubation with ATP was carried out (at twice the final targeted enzyme and ATP concentration) prior to addition of test compound and the peptide substrate.
(§3) TrkA in vitro assays were performed by pre-incubating TrkA (2-10 nM) with ATP (200 μM) for 20 minutes at ambient temperature in 50 mM HEPES pH 7.4, 10 mM MgCl2, 2 mM MnCl2, 100 μM Na3VO4, 1 mM dithiothreitol, 0.01% BSA (bovine serum albumin). Then, to the activated Trk enzyme mixture was added the test compound in 2% dimethyl sulfoxide. After 10 minutes, the peptide substrate (125 nM) was added. After 1 hour, enzyme reactions were terminated by addition of equal reaction volumes of detection/stop reagent (containing 0.2 μg/mL anti-phosphotyrosine monoclonal antibody labeled with europium from Cisbio (catalog# PT66-K), and 4 μg/mL PhycoLink® Streptavidin-Allophycocyanin conjugate from ProZyme (catalog# PJ25S) in 60 mM EDTA in 40 mM HEPES pH 7.4, 480 mM KF, 0.01% Tween® 20 and 0.1% BSA bovine serum albumin) Reaction plates were stored at 4° C. overnight before reading the fluorescence ratio signal on a PerkinElmer EnVision™ fluorescence detector. Individual reaction wells were stopped at time points to obtain reaction rates. The test inhibitor compounds were assayed in duplicate, at half-log serial dilutions over a range of concentrations (e.g. starting at 50 μM or 5 μM as the high compound concentration). The percent Trk enzyme inhibition was calculated from the initial rates of the inhibited reactions relative to the uninhibited control. IC50 values were calculated by fitting the inhibition percent to the concentration of inhibitor [I] in the assay in equation 1 below, to solve for the IC50.
(§4) Inhibition %=100[I]/([I]+[IC50]) equation 1
(§5) The TrkB and TrkC in vitro assays were performed as described above, except that for these enzymes the assay ATP concentration targeted was 5 μM.

TrkC = molecular target: T3, TrkC (Homo sapiens, UniProt Q16288); experiment: TrkC kinase inhibition, HTRF assay; assay type: biochemical; conditions: LCK peptide substrate, assay ATP concentration targeted 5 μM
T3 construct: purchased Invitrogen PV3617
T3 sequence (Q16288 32-839): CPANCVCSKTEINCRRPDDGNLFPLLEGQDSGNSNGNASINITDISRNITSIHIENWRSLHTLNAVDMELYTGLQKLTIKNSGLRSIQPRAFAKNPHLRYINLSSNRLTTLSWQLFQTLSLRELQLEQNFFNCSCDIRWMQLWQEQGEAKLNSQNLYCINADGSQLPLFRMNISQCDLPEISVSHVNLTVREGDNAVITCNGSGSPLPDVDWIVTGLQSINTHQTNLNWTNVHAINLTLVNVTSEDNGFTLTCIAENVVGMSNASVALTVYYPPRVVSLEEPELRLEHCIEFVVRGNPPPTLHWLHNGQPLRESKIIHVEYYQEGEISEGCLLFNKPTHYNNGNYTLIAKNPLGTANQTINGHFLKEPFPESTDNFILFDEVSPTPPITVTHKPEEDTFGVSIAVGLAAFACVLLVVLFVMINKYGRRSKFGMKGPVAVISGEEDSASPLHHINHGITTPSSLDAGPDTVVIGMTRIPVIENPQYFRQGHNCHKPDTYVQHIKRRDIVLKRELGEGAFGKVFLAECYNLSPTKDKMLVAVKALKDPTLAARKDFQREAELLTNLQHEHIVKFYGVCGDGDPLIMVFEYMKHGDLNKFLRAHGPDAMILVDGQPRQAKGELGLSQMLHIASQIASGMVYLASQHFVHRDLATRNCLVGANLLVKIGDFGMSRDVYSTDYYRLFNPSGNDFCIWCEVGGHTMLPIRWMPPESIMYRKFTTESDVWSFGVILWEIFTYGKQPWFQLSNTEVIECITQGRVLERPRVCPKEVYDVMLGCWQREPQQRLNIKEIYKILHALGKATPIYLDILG
Method: as §1, §2, §3, §4, §5

[1] = tested on: rat model of mono-iodoacetic acid induced osteoarthritis pain; experiment: Osteoarthritis pain model, hind limb grip force in MIA-treated rats; assay type: in vivo; conditions: mean percent effect, ***p<0.001 vs vehicle-treated animals
Method: Members of the TrkA inhibitors described above were tested and found effective in reducing osteoarthritis pain. The compounds tested were assessed in an in vivo model well known to those skilled in the art, the rat model of mono-iodoacetic acid induced osteoarthritis pain. A general review of various models of pain can be found in Joshi and Honore, Expert Opinion in Drug Discovery (2004) 1, pp. 323-334, and in the book ‘Drug Discovery and Evaluation, 2nd edition (H. Gerhard Vogel, editor; Springer-Verlag, New York, 2002; pp. 702-706).
Pain behavior was assessed by measurement of hind limb grip force (GF) in adult osteoarthritic rats. Male Sprague Dawley rats, generally weighing 125-150 g, were injected in the unilateral knee join with a single intra-articular injection of sodium monoiodoacetate (MIA). Rats were tested at 21-28 days following MIA injection. A behavioral measure of activity-induced pain was carried out. Measurements of the peak hind limb grip force were conducted by recording the maximum compressive force (CFmax), in grams of force, exerted on a hind limb strain gauge setup, in a commercially available grip force measurement system (Columbus Instruments, Columbus, Ohio).
During testing, each rat was gently restrained by grasping it around its rib cage and then allowed to grasp the wire mesh frame attached to the strain gauge. The experimenter then moved the animal in a rostral-to-caudal direction until the grip was broken. Each rat was sequentially tested twice at an approximately 2-3 minute interval to obtain a raw mean grip force (CFmax). This raw mean grip force data was in turn converted to a maximum hindlimb cumulative compressive force (CFmax), as the grams of force/kg of body weight, for each animal.
For evaluating the compound effects, the hind limb grip force testing in the MIA-treated rats was conducted generally 30-60 minutes after dosing with the test compound. A group of age-matched nave (not injected with MIA) animals was added as a comparator to the drug-dosed groups. The vehicle control response for each group of MIA-treated animals was defined as the 0% response (0% effect), whereas the nave control group was defined as the normal response and as 100% effect. The % effect=(Treatment CFmax−Vehicle CFmax)/Vehicle CFmax]×100). Higher % effect numbers indicate increased relief from the pain in the model, with 100% indicating a return to the level of response seen in normal (non-osteoarthritic) animals. All experiments evaluating drug effects in this model were conducted in a randomized blinded fashion.
Male Sprague Dawley rats (generally 250-300 g body weight at the time of testing) obtained from Charles River Laboratories (Wilmington, Mass.) were used for all experiments, unless indicated otherwise. […]

T1 sequence (P04629 33-796): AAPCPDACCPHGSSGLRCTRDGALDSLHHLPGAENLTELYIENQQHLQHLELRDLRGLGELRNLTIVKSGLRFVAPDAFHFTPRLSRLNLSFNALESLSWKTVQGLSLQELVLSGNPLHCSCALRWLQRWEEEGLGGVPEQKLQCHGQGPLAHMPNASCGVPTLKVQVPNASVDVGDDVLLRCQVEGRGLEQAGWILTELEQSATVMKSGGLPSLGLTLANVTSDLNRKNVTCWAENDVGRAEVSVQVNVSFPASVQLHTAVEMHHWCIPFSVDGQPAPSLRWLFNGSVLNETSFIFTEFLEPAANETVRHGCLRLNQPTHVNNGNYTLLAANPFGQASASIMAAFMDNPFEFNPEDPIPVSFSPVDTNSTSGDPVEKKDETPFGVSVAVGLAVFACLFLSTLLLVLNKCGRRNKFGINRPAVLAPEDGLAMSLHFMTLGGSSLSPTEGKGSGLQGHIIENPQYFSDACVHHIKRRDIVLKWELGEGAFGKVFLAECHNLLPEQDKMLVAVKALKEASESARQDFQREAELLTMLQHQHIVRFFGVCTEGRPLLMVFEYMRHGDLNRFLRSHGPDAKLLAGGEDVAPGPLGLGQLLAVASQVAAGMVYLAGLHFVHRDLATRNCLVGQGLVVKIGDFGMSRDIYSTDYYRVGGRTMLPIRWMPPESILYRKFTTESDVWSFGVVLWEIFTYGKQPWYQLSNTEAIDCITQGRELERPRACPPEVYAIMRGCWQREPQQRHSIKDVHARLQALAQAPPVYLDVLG

| SMILES | IC50 (TrkA) | IC50 (TrkB) | IC50 (TrkC) | % Effect ([1]; dose 30 mg/kg p.o.) | % Effect ([1]; dose 100 mg/kg p.o.) |
| --- | --- | --- | --- | --- | --- |
| CNC(=O)c1ccc(-c2cc(OC3CCOCC3)c3c(N)n[nH]c3c2)cc1N1CCN(CC(F)(F)F)CC1 [Example 108, 4-[3-amino-4-(tetrahydro-2H-pyran-4-yloxy)-1H-indazol-6-yl]-N-methyl-2-[4-(2,2,2-trifluoroethyl)piperazin-1-yl]benzamide] | 30.5 nM | 41.3 nM | 52.2 nM | 73%*** |  |
| CNC(=O)c1ccc(-c2cc(OC3CCOCC3)c3c(N)n[nH]c3c2)cc1N1CCN(C2CCCCC2)CC1 [Example 29, 4-[3-amino-4-(tetrahydro-2H-pyran-4-yloxy)-1H-indazol-6-yl]-2-(4-cyclohexylpiperazin-1-yl)-N-methylbenzamide] | 97.9 nM | 46 nM | 55.9 nM |  | 77%*** |
| NC(=O)c1ccc(-c2cc(OC3CCCC3)c3c(N)n[nH]c3c2)cc1N1CCN(CCN2CCOCC2)CC1 [Example 70, 4-[3-amino-4-(cyclopentyloxy)-1H-indazol-6-yl]-2-{4-[2-(morpholin-4-yl)ethyl]piperazin-1-yl}benzamide] | 34.9 nM | 83.7 nM | 145 nM |  |  |
| CNC(=O)c1ccc(-c2cc(OC(C)C)c3c(N)n[nH]c3c2)cc1N1CCN(C2CCCCC2)CC1 [Example 109, 4-(3-amino-4-isopropoxy-1H-indazol-6-yl)-2-(4-cyclohexylpiperazin-1-yl)-N-methylbenzamide] | 15.7 nM | 2.58 nM | 4.89 nM |  |  |

Now those with a lower IC50 (TrkA), led by results:

| IC50 (TrkA) | IC50 (TrkB) | IC50 (TrkC) | SMILES | % Effect ([1]; dose 30 mg/kg p.o.) | % Effect ([1]; dose 100 mg/kg p.o.) |
| --- | --- | --- | --- | --- | --- |
| 7.98 nM | 3.2 nM | 5.11 nM | CNC(=O)c1ccc(-c2cc(OC3CCOCC3)c3c(C)n[nH]c3c2)cc1N1CCN(C(=O)OC(C)C)CC1 [Example 125, isopropyl 4-{2-(methylcarbamoyl)-5-[3-methyl-4-(tetrahydro-2H-pyran-4-yloxy)-1H-indazol-6-yl]phenyl}piperazine-1-carboxylate] | 85%*** |  |
| 4.74 nM |  |  | CNC(=O)c1ccc(-c2cc(OC3CCOCC3)c3c(N)n[nH]c3c2)cc1N1CCN(c2ncc(F)cn2)CC1 [Example 113, 4-[3-amino-4-(tetrahydro-2H-pyran-4-yloxy)-1H-indazol-6-yl]-2-[4-(5-fluoropyrimidin-2-yl)piperazin-1-yl]-N-methylbenzamide] | 89%*** |  |
